[mp] = methylphosphonate linkage
Legend:
[1] = test system: complementary RNA targets; experiment: Tm with complementary RNA target, oligomers 5'-TAG-CTT-CCT-TAG-CTC-CTG-3'; type: binding; conditions: Table XI
Procedure: (§1) Annealing reaction mixtures contained equimolar amounts of Oligomer and RNA target Oligomer (2.4 μM total strand concentration), 20 mM potassium phosphate (pH 7.2), 100 mM sodium chloride, 0.1 mM EDTA and 0.03% potassium sarkosylate. The reaction mixtures were heated to 80° C. and then slowly cooled to 4° C. over about 4 to 6 hours. The annealed samples were then transferred to 1 cm quartz cuvettes and Tm was monitored by absorbance at 260 nm as a function of temperature using a Varian Cary Model 2E Spectrophotometer containing a temperature controlled 6×6 sample holder which interfaced with an IBM compatible PC computer. The temperature was varied from 5° C. to 80° C. at a ramp rate of 1° C./minute. The Tm for each melt profile is determined as the point corresponding to the maximum of the first derivative of the curve corresponding to absorbance versus temperature.
The oligomers were synthesized according to methods set forth in the Examples herein and had mixed oligonucleoside sequences complementary to biologically relevant mRNA targets. Tm determinations were done according to the methods described in the proceeding Examples.

splice acceptor site = experiment: Tm of splice acceptor site oligomers; type: binding; conditions: Table XIII
Procedure: as §1
The results are given as percent gene expression relative to no-oligomer treatment of cells. The concentration is given above the data columns in micromolar. CAT levels were determined in triplicate as previously given and the experiment has been repeated multiple times. The Tm of the oligomers was determined as previously given.

pGL2 (luciferase) = type: cell-based; conditions: for percent gene expression relative to no-oligomer treatment, pGL2 (splicing, no match): 1.0 μM; for inhibition of luciferase expression (in words): pGL2
Procedure: All cultures were maintained at 37° C.
This assay was performed generally as follows according to standard procedures. 20 μl of lysate was combined with 100 μl of luciferase assay reagent (Promega) and counted in a scintillation counter (Packard) within 20 seconds (as recommended by Promega).
In order to determine that the effect against pG1035 was not due to non-specific interference of splicing in general, pGL2 was used as an additional control. pGL2 encodes the luciferase gene and contains an intron that is unrelated to the intron in pG1035.

pG1036 (wild-type CAT) = experiment: CAT expression, non-splicing reporter pG1036, in COS-7 cells; conditions: for inhibition of expression of non-splicing CAT gene (in words): pG1036
pG1035 (SplicerCAT) = experiment: Inhibition of CAT expression, splicing reporter pG1035, in COS-7 cells; conditions: for reduction of CAT expression: pG1035, 1.0 micromolar

Substance | Tm(° C. RNA) [1] [°C] | Tm (splice acceptor site) [°C] | percent gene expression relative to no-oligomer treatment, pGL2 (splicing, no match) (pGL2 (luciferase)) [%] | inhibition of luciferase expression (in words) (pGL2 (luciferase)) | percent gene expression relative to no-oligomer treatment, pG1036 (non-splicing) (pG1036 (wild-type CAT); 0.1 μM) [%] | percent gene expression relative to no-oligomer treatment, pG1036 (non-splicing) (pG1036 (wild-type CAT); 0.3 μM) [%] | percent gene expression relative to no-oligomer treatment, pG1036 (non-splicing) (pG1036 (wild-type CAT); 1.0 μM) [%] | inhibition of expression of non-splicing CAT gene (in words) (pG1036 (wild-type CAT)) | percent gene expression relative to no-oligomer treatment, pG1035 (splicing) (pG1035 (SplicerCAT); 0.1 μM) [%] | percent gene expression relative to no-oligomer treatment, pG1035 (splicing) (pG1035 (SplicerCAT); 0.3 μM) [%] | percent gene expression relative to no-oligomer treatment, pG1035 (splicing) (pG1035 (SplicerCAT); head printed 0.1) [%] | reduction of CAT expression (pG1035 (SplicerCAT)) [%]
1630-1: 5'-TAG-CTT-CCT-TAG-CTC-CTG-3' [SEQ. ID. NO. 5], Racemic MP (DNA TAGCTTCCTTAGCTCCTG; all [mp], sugars by position and methylation of C not given here) [Oligomer 1630-1] | 39.0 | – | – | – | – | – | – | – | – | – | – | –
3373-1B: 18 mer 2'-O-Me (MP(Rp)/DE), 5'-gag aga gag aga ggt tcg-3' [SEQ. ID. NO. 13] (GAGAGAGAGAGAGGTTCG; all 2'-O-methyl, backbone, methylation of C and T or U not given here; Rp methylphosphonate and diester linkages) [Oligomer 3373-1B] | – | 80 | 127 | not inhibited in any way | 95 | 85 | 81 | Neither oligomer inhibited the expression of the non-splicing CAT gene, pG1036, significantly | 59 | 31 | 10 | 90
3373-1A: 24 mer, 2'-O-Me (MP(Rp)/DE), 5'-ccc tga gag aga gag aga ggt tcg [SEQ. ID. NO. 12] (CCCTGAGAGAGAGAGAGAGGTTCG; all 2'-O-methyl, backbone, methylation of C and T or U not given here; Rp methylphosphonate and diester linkages) [Oligomer 3373-1A] | – | 84 | 127 | not inhibited in any way | 91 | 89 | 105 | Neither oligomer inhibited the expression of the non-splicing CAT gene, pG1036, significantly | 81 | 48 | 26 | 74

Reference: US6028188A (priority 1994, dated 2000)
